Non-standard residues stand in square brackets, D forms with d. Residues, ends and D or L forms follow the SMILES beside them. *: point of attachment. Sta = CC(C)C[C@H](N)[C@@H](O)CC(=O)O; Isovaleryl = CC(C)CC(=O)*
Experiments:
[1] = tested on: renin obtained from pig's kidney; assay: Renin-inhibiting activity (method of Ikeda et al); type: biochemical
[2] = target: T1, pepsin from coats of pig's stomach (Sus scrofa, UniProt P00791); assay: Pepsin-inhibiting activity (method of Anson et al); type: biochemical; details: pepsin from coats of pig's stomach (P7012, Sigma)
T1 construct: using pepsin from coats of pig's stomach (P7012 manufactured by Sigma Chemical Inc.); purchased Sigma Chemical Inc. P7012; host or cells: pig stomach mucosa
Method: • (1) Pepsin-Inhibiting Activity: The pepsin-inhibiting activity was measured in terms of IC50 value according to the method of Anson et al [Journal of General Physiology 22, 79 (1938)] using pepsin from coats of pig's stomach (P7012 manufactured by Sigma Chemical Inc.).

T1 sequence (P00791 60-385): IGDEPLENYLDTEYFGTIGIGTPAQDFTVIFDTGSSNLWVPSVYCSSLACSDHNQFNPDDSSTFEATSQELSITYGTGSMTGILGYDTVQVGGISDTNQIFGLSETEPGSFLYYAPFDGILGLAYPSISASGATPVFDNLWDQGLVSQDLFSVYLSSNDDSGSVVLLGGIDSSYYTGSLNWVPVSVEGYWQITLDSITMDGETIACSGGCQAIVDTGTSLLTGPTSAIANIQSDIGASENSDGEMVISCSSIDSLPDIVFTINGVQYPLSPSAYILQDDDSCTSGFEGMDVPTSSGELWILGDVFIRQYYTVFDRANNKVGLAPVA

| SMILES | IC50 [1] [nM] | IC50 [2] [nM] |
| --- | --- | --- |
| CC(C)CC(=O)N[C@H](C(=O)N[C@H](C(=O)N[C@@H](CC(C)C)[C@@H](O)CC(=O)N[C@@H](C)C(=O)N[C@@H](CC(C)C)[C@@H](O)CC(=O)O)C(C)C)C(C)C [pepstatin A] (Isovaleryl-VV[Sta]A[Sta]-OH) | 470 | 3 |
| CC(C)CC(=O)NC(C(=O)NC(C(=O)NC(CC(C)C)C(O)CC(=O)NC(C)C(=O)NC(Cc1ccccc1)C(O)CC(=O)O)C(C)C)C(C)C (stereo not drawn) [compound A] | – | 10 |

Reference: patent publication EP0236948A2, “Novel compounds WK-142 and process for preparing the same” (KITASATO KENKYUSHO, priority 1986, dated 1987)
